Results: publication PMC6768323, “Adverse Maternal, Fetal, and Postnatal Effects of Hexafluoropropylene Oxide Dimer Acid (GenX) from Oral Gestational Exposure in Sprague-Dawley Rats” (Environmental Health Perspectives, 2019)

Tests used:
estrogen (ER) receptor = test: ER transcriptional activation, T47D-KBluc cells; assay type: cell-based; settings: 100 pM to 10 μM
Description: HFPO-DA was assessed for agonism and antagonism of transcriptional activation for estrogen (ER), androgen (AR), and glucocorticoid receptors (GR). Method details for in vitro transactivation assays for ER ([Wilson et al. 2004a]), AR ([Hartig et al. 2002], [2007]), and GR ([Conley et al. 2017]; [Medlock Kakaley et al. 2018]) have been previously reported. Briefly, for ER activity we utilized the stably transfected T47D-KBluc cell line [publicly available via American Type Culture Collection (ATCC); CRL-2865] according to protocols provided by ATCC with the modification of Dulbecco’s Modified Eagle Media (DMEM) as the cell culture media instead of Roswell Park Memorial Institute (RPMI) media. […] All assays were run in 96-well plates and luminescence was detected using a BMG Fluostar Omega luminometer (BMG Labtech) following 24-h exposure. […] Cellular cytotoxicity across the dosing range was determined for CV-1 cells utilizing the 3-(4,5-dimethylthiazol-2-yl)-2,5-diphenyltetrazolium bromide (MTT) dye ([Mosmann 1983]). HFPO-DA was analyzed using n=2–3 biological replicate assay plates (i.e., unique cell passages) with four technical replicates per treatment per plate. […]

[1] = design: method as in DuPont 2017; settings: ref DuPont 2017; cited from earlier work

For `O=C(O)C(F)(OC(F)(F)C(F)(F)C(F)(F)F)C(F)(F)F` (centres unmarked) [HFPO-DA, Hexafluoropropylene oxide dimer acid], the “estrogenic activity (agonism or antagonism)” value (estrogen (ER) receptor) is listed as “did not display any estrogenic activity” and the “highest detected plasma concentration from a worker” value [1] is listed as 0.169 µg/mL.
